The text below walks through data of patent publication US20230157952A1, “METHOD FOR IMPROVING THE STABILITY OF A PHARMACEUTICAL COMPOSITION COMPRISING A HIGH PENETRATION DRUG, AND THE PHARMACEUTICAL COMPOSITION OBTAINED THEREFROM” (Techfields Inc., priority 2020, published 2023).

A short description of this series: Effect of concentration on the stability of the solution (purity over time). The note with it: for Stability when the concentration is 0.1% or lower: in water at 25° C.; for Purity (%) at Day 3 / Purity (%) at Day 7 / Purity (%) at hr 0 / Purity (%) at hr 24 / Purity(%) at Day 14 / Purity(%) at Day 28: 25° C.

In the case of `CCN(CC)CCOC(=O)CCCc1ccc(N(CCCl)CCCl)cc1.Cl` [2-(diethylamino)ethyl 4-[bis(2-chloroethyl)amino]benzenebutyrate.HCl], the “Stability when the concentration is 0.1% or lower” value was “not stable”.
As for `CCN(CC)CCOC(=O)CCCc1ccc(N(CCS(C)(=O)=O)CCS(C)(=O)=O)cc1.Cl` [2-(diethylamino)ethyl 4-[bis(2-methylsulfonylethyl)amino]benzenebutyrate.HCl], the “Stability when the concentration is 0.1% or lower” value is “not stable”.
For `CCOC(=O)c1ccccc1` [Ethyl benzoate, reference compound], under “0.01% to 10% (or higher) in 50% ethanol at 25° C.”, the “Stability of common ester over the concentrations tested” value was “very stable”. In addition, for the setting “0.01 wt % in 50% ethanol”, the “Purity (%) at Day 3” value turned out to be 97.4%, the “Purity (%) at Day 7” value is reported as 96.9%, the “Purity (%) at hr 0” value was determined as 97.8% and the “Purity (%) at hr 24” value came out at 97.6%. In addition, where the note is “0.01 wt % in 50% ethanol”, the “Purity(%) at Day 14” value is given as 96.1% and the “Purity(%) at Day 28” value is on record as 95.3%. Besides, under “0.1 wt % in 50% ethanol”, the “Purity (%) at Day 3” value amounted to 97.6%, the “Purity (%) at Day 7” value was determined as 97.5%, the “Purity (%) at hr 0” value came out at 97.9% and the “Purity (%) at hr 24” value is 97.7%. Under “0.1 wt % in 50% ethanol”, the “Purity(%) at Day 14” value came to 97.2% and the “Purity(%) at Day 28” value is given as 95.9%. For the same molecule, under “1 wt % in 50% ethanol”, the “Purity (%) at Day 3” value is reported as 97.7%, the “Purity (%) at Day 7” value was found to be 97.6%, the “Purity (%) at hr 0” value amounted to 98.0% and the “Purity (%) at hr 24” value came out at 97.8%. Also, under “1 wt % in 50% ethanol”, the “Purity(%) at Day 14” value was 97.5% and the “Purity(%) at Day 28” value is given as 97.3%. Also, for the setting “3 wt % in 50% ethanol”, the “Purity (%) at Day 3” value was 97.8%, the “Purity (%) at Day 7” value is listed as 97.7%, the “Purity (%) at hr 0” value came to 97.9% and the “Purity (%) at hr 24” value is 97.8%. Under “3 wt % in 50% ethanol”, the “Purity(%) at Day 14” value is 97.6% and the “Purity(%) at Day 28” value is listed as 97.5%. In addition, where the note is “5 wt % in 50% ethanol”, the “Purity (%) at Day 3” value was 97.8%, the “Purity (%) at Day 7” value is recorded as 97.7%, the “Purity (%) at hr 0” value is recorded as 98.0% and the “Purity (%) at hr 24” value amounted to 97.8%. Also, under “5 wt % in 50% ethanol”, the “Purity(%) at Day 14” value is 97.6% and the “Purity(%) at Day 28” value is on record as 97.6%. Besides, where the note is “10 wt % in 50% ethanol”, the “Purity (%) at Day 3” value worked out at 97.8%, the “Purity (%) at Day 7” value came out at 97.8%, the “Purity (%) at hr 0” value is listed as 97.9% and the “Purity (%) at hr 24” value was 97.8%. For the same molecule, where the note is “10 wt % in 50% ethanol”, the “Purity(%) at Day 14” value is reported as 97.7% and the “Purity(%) at Day 28” value is listed as 97.6%.
